What was measured:
Settings in all cases: synthetic library passage 3, intravenous, relative to wild-type AAV9
brain [1] = experiment: NGS fold enrichment of synthetic library (passage 3) in C57Bl/6 mice, first cross-species screen; assay type: in vivo
Procedure, shortened: (§1)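 Fold enrichment versus wild-type AAV9 was derived by NGS of RT-PCR-amplified RNA from nervous tissue, collected e.g. 28 days after IV dosing […]. The library (passage 3) was given to two NHPs aged 2-4 years and to 6-8-week BALB/c and C57Bl/6 mice (n=3 each).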

[2] = tested on: brain, spinal cord, and DRG of the NHPs; experiment: NGS fold enrichment of synthetic library (passage 3) in NHPs, first cross-species screen; assay type: in vivo, cynomolgus macaques (Macaca fascicularis)
Procedure, shortened: as §1

brain [3] = experiment: NGS fold enrichment of synthetic library (passage 3) in BALB/c mice, first cross-species screen; assay type: in vivo
Procedure, shortened: as §1

[4] = RNA from brain of C57Bl/6 mice, NGS
[5] = RNA from spinal cord of NHPs, NGS
[6] = RNA from brain of BALB/c mice, NGS

Row | Sequence | Fold enrichment over AAV9 in the brain of Mice (C57Bl/6) (brain [1]; RNA NGS, brain of C57Bl/6 mice) | Fold enrichment over AAV9 in the brain of NHPs ([2]; RNA NGS, brain of NHPs) | Fold enrichment over AAV9 in the spinal cord of NHPs ([2]; RNA NGS, spinal cord of NHPs) | Fold enrichment over AAV9 in the brain of Mice (BALB/c) (brain [3]; RNA NGS, brain of BALB/c mice) | Fold enrichment over AAV9 in the brain of Mice (C57Bl/6) (brain [1]; [4]) | Fold enrichment over AAV9 in the brain of NHPs ([2]; RNA from brain of NHPs, NGS) | Fold enrichment over AAV9 in the spinal cord of NHPs [2, 5] | Fold enrichment over AAV9 in the brain of Mice (BALB/c) (brain [3]; [6])
1 | GSGQNQQRNSDSVT | 1.238 fold | 1.829 fold | 0.000 fold | 0.842 fold |  |  |  | 
2 | GSGQNQQSALRTQT | 1.581 fold | 1.568 fold | 1.913 fold | 1.421 fold |  |  |  | 
3 | GSGQNQQSANKILT |  |  |  |  | 0.894 fold | 1.331 fold | 3.789 fold | 1.236 fold
4 | GSGQNQQSAREGLT | 1.221 fold | 3.111 fold | 5.632 fold | 1.104 fold |  |  |  | 
5 | GSGQNQQSGRGDLT | 0.524 fold | 2.019 fold | 6.919 fold | 1.152 fold |  |  |  | 
6 | GSGQNQQSGTFLST | 1.021 fold | 1.090 fold | 5.673 fold | 0.742 fold |  |  |  | 
7 | GSGQNQQSHGRIGT |  |  |  |  | 0.607 fold | 1.173 fold | 5.117 fold | 0.455 fold
8 | GSGQNQQSHLRTNT |  |  |  |  | 1.022 fold | 1.251 fold | 4.583 fold | 0.718 fold
9 | GSGQNQQSKQQVLT | 1.428 fold | 1.019 fold | 1.494 fold | 1.256 fold |  |  |  | 
10 | GSGQNQQSLSGSFT | 0.745 fold | 1.105 fold | 0.735 fold | 0.883 fold |  |  |  | 
11 | GSGQNQQSMADHTT | 0.428 fold | 1.494 fold | 1.728 fold | 0.215 fold |  |  |  | 
12 | GSGQNQQSMGTFTT | 1.792 fold | 1.625 fold | 0.000 fold | 0.399 fold |  |  |  | 
13 | GSGQNQQSNWITKT | 0.540 fold | 2.711 fold | 0.000 fold | 0.634 fold |  |  |  | 
14 | GSGQNQQSQYMPRT |  |  |  |  | 0.549 fold | 1.234 fold | 0.401 fold | 0.520 fold
15 | GSGQNQQSSFNVQT | 1.307 fold | 0.998 fold | 0.000 fold | 0.675 fold |  |  |  | 
16 | GSGQNQQSTGTSRT | 1.209 fold | 1.103 fold | 4.054 fold | 0.935 fold |  |  |  | 
17 | GSGQNQQTAHAFNI |  |  |  |  | 0.699 fold | 1.132 fold | 3.404 fold | 0.729 fold

From patent publication US20260250318A1, “COMPOSITIONS AND METHODS FOR CROSSING THE BLOOD BRAIN BARRIER” (VOYAGER THERAPEUTICS, INC., priority 2022, published 2026)
